According to patent US11649209B2, “Crystalline freebase forms of a biphenyl compound” (THERAVANCE BIOPHARMA R&D IP, LLC, priority 2009, dated 2023):
In brackets after ≈: the same amount, converted by molar mass. Read-outs that look alike come from different tables or passages of the source. One block for each compound: values may come before it.

What was measured:
[1] = Gravimetric vapor sorption assessment; type: physicochemical
Description: Gravimetric vapor sorption (GVS) studies were performed using a Surface
Measurements System DVS-1 instrument for generation of full sorption isotherm using water vapor perfusion at 25° C. A sample size of approximately 7 mg was placed into a clean and dry tared sample mesh pan and weighed using the internal balance. The target relative humidity (RH) ranges were from 30% to 90%, then 90% to 0% and 0% to 30% with 10% steps. The point of equilibrium was automatically determined using a 0.02 dm/dt asymptote setting.

[2] = Micronization, particle size by laser light diffraction; type: physicochemical
From the text: Samples of the crystalline freebase Form III were micronized using either an APTM 4″ micronizer and the particle size determined buy laser light diffraction.

[3] = Storage stability of micronized material (PXRD, DSC); type: physicochemical; details: 3 months at 40° C./20% RH, 50° C./ambient humidity
Description: For reference, the particle size of the input crystalline freebase Form III was X10=5.58 μm X50=18.2 μm, and X90=49.7 μm. Micronization yielded particles in the respirable size range.
There was an additional small thermal event in the micronized material at 87° C., likely due to crystallization.

[4] = pH solubility; type: physicochemical; details: for solubility: thermodynamic from solid
Description: Solubility in water is 0.66 mg/mL with a natural pH of 8.9.

[5] = Solution stability; type: physicochemical
Description: The crystalline freebase Form III solutions are stable in pH 4 and pH 6 buffers for up to 7 days at 50° C. or exposed to light. The solutions are stable in water and saline for 7 days at room temperature, protected from light.

[6] = Exposure to atmospheric moisture, elevated temperature and humidity; type: physicochemical
[7] = target: T1, M3 muscarinic receptor subtype (Homo sapiens, UniProt P20309); experiment: Radioligand binding assay ([3H]-NMS displacement) on muscarinic receptor subtypes; details: this or a similar assay
T1 construct: expressed in transfected cells
T1 sequence (P20309 whole entry): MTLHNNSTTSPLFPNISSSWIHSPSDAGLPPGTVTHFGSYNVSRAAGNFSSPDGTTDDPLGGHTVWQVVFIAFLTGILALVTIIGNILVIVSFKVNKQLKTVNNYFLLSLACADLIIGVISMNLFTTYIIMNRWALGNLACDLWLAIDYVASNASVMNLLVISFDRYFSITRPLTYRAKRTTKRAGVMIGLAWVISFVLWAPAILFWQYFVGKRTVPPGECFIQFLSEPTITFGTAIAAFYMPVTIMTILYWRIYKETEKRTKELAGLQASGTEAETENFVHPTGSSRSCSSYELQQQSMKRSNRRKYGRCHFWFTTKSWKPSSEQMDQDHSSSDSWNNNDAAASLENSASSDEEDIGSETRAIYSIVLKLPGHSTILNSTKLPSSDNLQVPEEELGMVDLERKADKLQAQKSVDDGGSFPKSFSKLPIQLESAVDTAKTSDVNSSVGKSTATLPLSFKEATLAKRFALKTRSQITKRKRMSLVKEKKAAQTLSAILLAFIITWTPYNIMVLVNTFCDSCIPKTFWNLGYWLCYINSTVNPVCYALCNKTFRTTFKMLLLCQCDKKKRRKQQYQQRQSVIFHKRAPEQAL
Description: CHO cell lines stably expressing cloned human hM1, hM2, hM3 and hM4 muscarinic receptor subtypes, respectively, were grown to near confluency in medium consisting of HAM's F-12 supplemented with 10% FBS and 250 μg/mL Geneticin. The cells were grown in a 5% CO2, 37° C. incubator and lifted with 2 mM EDTA in dPBS. Cells were collected by 5 minute centrifugation at 650×g, and cell pellets were either stored frozen at −80° C. or membranes were prepared immediately. For membrane preparation, cell pellets were resuspended in lysis buffer and homogenized with a Polytron PT-2100 tissue disrupter (Kinematica AG; 20 seconds×2 bursts). Crude membranes were centrifuged at 40,000×g for 15 minutes at 4° C. […] The protein concentration of the membrane suspension was determined by the method described in Lowry, O. et al.,Journal of Biochemistry 193:265 (1951). […]
Radioligand binding assays were performed in 96-well microtiter plates in a total assay volume of […]. […] Filter plates were rinsed three times with wash buffer (10 mM HEPES) to remove unbound radioactivity. […] The plates were then counted in a PerkinElmer Topcount liquid scintillation counter (PerkinElmer Inc., Wellesley, Mass.). Binding data were analyzed by nonlinear regression analysis with the GraphPad Prism Software package (GraphPad Software, Inc., San Diego, Calif.) using the one-site competition model. […]

[8] = target: T2, hM3 receptor (Homo sapiens, UniProt P20309); experiment: Blockade of agonist-mediated calcium release via FLIPR; type: cell-based; details: CHO cells stably expressing the hM3 receptor
T2 construct: expressed in transfected cells
T2 sequence (P20309 whole entry): as above
From the text: Muscarinic receptor subtypes (M1, M3 and M5 receptors), which couple to Gq proteins, activate the phospholipase C (PLC) pathway upon agonist binding to the receptor. As a result, activated PLC hydrolyzes phosphatyl inositol diphosphate (PIP2) to diacylglycerol (DAG) and […] (IP3), which in turn generates calcium release from intracellular stores, i.e., endoplasmic and sarcoplasmic reticulum. The FLIPR (Molecular Devices, Sunnyvale, Calif.) assay capitalizes on this increase in intracellular calcium by using a calcium sensitive dye (Fluo-4AM, Molecular Probes, Eugene, Oreg.) that fluoresces when free calcium binds. This fluorescence event is measured in real time by the FLIPR, which detects the change in fluorescence from a monolayer of cells cloned with human M1 and M3, and chimpanzee M5 receptors. Antagonist potency can be determined by the ability of antagonists to inhibit agonist-mediated increases in intracellular calcium. […]
To determine antagonist potency, the dose-dependent stimulation of intracellular Ca^2+ release for oxotremorine is first determined so that antagonist potency can later be measured against oxotremorine stimulation at an EC90 concentration. […]
The change of fluorescence is expressed as maximum fluorescence minus baseline fluorescence for each well. […]

[9] = test system: MCh response; experiment: Rat Einthoven assay (bronchoprotection against MCh); type: in vivo; details: for ID50: 1.5 hrs post-dose, inhalation
Description: All test compounds are diluted in sterile water and are dosed via the inhalation route (IH). […] Each test compound solution is nebulized over a 10 minute time period in a pie shaped dosing chamber capable of holding six rats. At predetermined time points after inhalation of compound, the Einthoven assay is performed. […] The jugular vein is catheterized with saline filled polyethylene catheters (PE-50) and used to infuse MCh. The trachea is then dissected and cannulated with a 14G needle and used for rat ventilation during pulmonary evaluation. Once surgery is complete, rats are ventilated using a piston respirator set at a stroke volume of 1 ml/100 g body weight but not exceeding 2.5 ml volume, and at a rate of 90 strokes per minute. The changes in pressure that occur with each breath are measured. […] The MCh is infused for 2.5 minutes from a syringe pump at a rate of 2 mL/kg/min. The animals are euthanized upon completion of the studies. Changes in ventilation pressure (cm H2O) in treated animals are expressed as % inhibition of MCh response relative to control animals.

[10] = test system: pilocarpine-induced salivation; experiment: Rat antisialagogue assay; type: in vivo; details: evaluated at 1, 6 and 24 hr post-dose
Description: Rats (Sprague-Dawley, male, 250-350 g) are dosed, anesthetized and cannulated as described for Assay 3. At predetermined time points and after surgery, animals are placed on their dorsal side at a 20° incline with their head in a downward slope. A pre-weighed gauze pad is inserted in the animal's mouth and the muscarinic agonist pilocarpine (PILO) (3 mg/kg, iv.) is administered. Saliva produced during 10 minutes post-PILO is measured gravimetrically by determining the weight of the gauze pad before and after PILO. Antisialagogue effects are expressed as % inhibition of salivation relative to control animals.
The rat antisialagogue assay was developed to assess systemic exposure and calculate the lung selectivity index (LSI) of test compounds. The standard, tiotropium, was evaluated in this model at 1, 6, and 24 hr post-dose. […] This finding is consistent with the peak effects observed in the Einthoven assay.
This model is a modified version of the procedure described in Rechter, “Estimation of anticholinergic drug effects in mice by antagonism against pilocarpine-induced salivation” Ata Pharmacol Toxicol 24:243-254 (1996). The mean weight of saliva in vehicle-treated animals, at each pre-treatment time, is calculated and used to compute % inhibition of salivation, at the corresponding pre-treatment time, at each dose.

[11] = input material before micronization

- reversible water uptake ([1]; between 0 and 90% RH at 25° C.): < 2 % w/w
- reversible water uptake ([1]; between 0 and 90% relative humidity at 25° C.): < 2 % wt/wt
- Particle size X10 [2, 11]: 5.58 μm
- Particle size X50 [2, 11]: 18.2 μm
- Particle size X90 [2, 11]: 49.7 μm
- Particle size X10 ([2]; micronized material): 1.27 μm
- Particle size X50 ([2]; micronized material): 2.69 μm
- Particle size X90 ([2]; micronized material): 5.25 μm
- change in PXRD after storage ([3]; 40° C./75% RH (uncapped)): No changes were observed
- amorphous content by DSC after storage ([3]; 40° C./75% RH naked): no evidence of amorphous content
- solubility ([4]; aqueous buffer, in media up to pH 7, read-out: Solubility): > 2000 µg/mL
- natural pH in water ([4]; at solubility in water): 8.9
- solubility ([4]; simulated lung fluid, fassgf or other biorelevant, no change between 4 hour and 24 hour measurements, read-out: Solubility in simulated lung fluid): 460 µg/mL (≈ 770 µM)
- solubility ([4]; water, pH 8.9, water, natural pH of 8.9, read-out: Solubility in water): 660 µg/mL (≈ 1100 µM)
- solution stability in water and saline ([5]; 7 days at room temperature, protected from light): stable
- solution stability in buffers ([5]; pH 4 and pH 6 buffers, up to 7 days at 50° C. or exposed to light): stable
- stability upon exposure to elevated temperature and humidity [6]: stable
Compound: CN(CCN1CCC(OC(=O)Nc2ccccc2-c2ccccc2)CC1)C(=O)c1ccc(CN2CCC(C(N)=O)CC2)cc1 [Form III, Biphenyl-2-ylcarbamic Acid 1-(2-{[4-(4-Carbamoylpiperidin-1-ylmethyl)benzoyl]methylamino}ethyl)piperidin-4-yl Ester]

- Ki [7]: < 5 nM
- Ki [8]: < 5 nM
Compound: CN(CCN1CCC(OC(=O)Nc2ccccc2-c2ccccc2)CC1)C(=O)c1ccc(CN2CCC(C(N)=O)CC2)cc1 [compound of formula I, biphenyl-2-ylcarbamic acid 1-(2-{[4-(4-carbamoylpiperidin-1-ylmethyl)benzoyl]methylamino}ethyl)piperidin-4-yl ester]

Compound: C[N+]1(C)CCC(OC(=O)C(O)(c2ccccc2)C2CCCC2)C1 (centres unmarked) [glycopyrrolate]
- ID50 [9]: 15 µg/mL

Compound: CC(C)[N+]1(C)[C@@H]2CC[C@H]1C[C@@H](OC(=O)C(CO)c1ccccc1)C2 (some centres unmarked) [ipratropium]
- fold less potent 6-hr post-dose compared to 1.5 hr potency ([9]; 10 and 30 μg/ml, 6 hr post-dose): about 3 fold
- ID50 [9]: 4.4 µg/mL

Compound: C[N+]1(C)[C@@H]2C[C@@H](OC(=O)C(O)(c3cccs3)c3cccs3)C[C@H]1[C@@H]1O[C@@H]12 [tiotropium]
- ID50 [9]: 6 µg/mL
- fold more potent at 6 hr and 24 hr compared to 1.5 hr potency ([9]; 6 hr and 24 hr post-dose): about 2 fold
- time of peak bronchoprotection post-dose ([9]; slow onset of effect): 6 h
- time post dose of highest potency at inhibiting pilocarpine-induced salivation [10]: 6 h
